Test results reported in patent US20260014146A1, “CDK2 INHIBITORS AND METHODS OF USING THE SAME” (Cedilla Therapeutics, Inc., priority 2022, published 2026).
pIC50: −log10 of the molar value.

Legend:
CDK2/Cyclin E1 = CDK2/Cyclin E1 (Homo sapiens (Human), UniProt P24941); experiment: Caliper LabChip EZ Reader mobility shift assay; assay type: biochemical; conditions: 2.5 nM CDK2/Cyclin E1 (14-475), 100 μM ATP, 1.5 μM fluorescent peptide; read-out: Caliper Assay (CDK2/CCNE1): IC50
Experimental: Inhibition of CDK2/Cyclin E1 activity in the presence of compounds of the present disclosure was evaluated using a Caliper LabChip® EZ Reader mobility shift assay. In the assay, activated CDK2/Cyclin E1 catalyzes the phosphorylation of a fluorescently tagged peptide 5-FAM-QSPKKG-CONH2 (PerkinElmer, FL Peptide 18) which induces a difference in capillary electrophoresis mobility. The peptide substrate and product were measured, and the conversion ratio was used to determine the inhibition (as % activity and IC50 values) of CDK2/Cyclin E1. Reactions contained 50 mM HEPES pH 7.5, 10 mM MgCl2, 1 mM EDTA, 2 mM DTT, 0.01% Brij35, 0.5 mg/mL BSA, 0.1% DMSO, 2.5 nM CDK2/Cyclin E1 (14-475), 100 μM ATP, and 1.5 μM fluorescent peptide substrate.
Dose titrations of inhibitors in 100% DMSO were combined with 3.25 nM CDK2/Cyclin E1 (14-475) and 130 μM of ATP in reaction buffer. The mixtures were incubated for 30 minutes before the addition of fluorescent peptide substrate to initiate the kinase reaction. The final conditions were 2.5 nM CDK2/Cyclin E1 (14-475), 100 μM ATP, and 1.5 μM fluorescent peptide. The reactions were stopped after 100 minutes with the addition of EDTA (6 mM final EDTA concentration). The stopped reactions were analyzed on a Caliper LabChip® EZ Reader II. The conversion ratios were normalized to yield % activity, plotted against compound concentration, and fit to a four-parameter equation to determine the IC50 for each compound.

Kuramochi cells = experiment: BrdU cell proliferation assay; assay type: cell-based; conditions: 96 h, developed on day 4, read-out: BrdU - KURAMOCHI.1: IC50
Experimental: A BrdU assay was used as a measure of proliferation based on the DNA replication process of proliferating cells. BrdU, a pyrimidine analog, is added to the cell culture and incorporated into the DNA of proliferating cells. The presence of the BrdU analog was then measured through a colorimetric ELISA. After fixation and permeabilization of cells, peroxidase-conjugated antibody recognizing BrdU is added and allowed to incubate, followed by thorough washing to remove unbound antibody. In order to quantify the amount of bound antibody, peroxidase substrate is added and produces a color that can be measured at 450 nm.
On day −1, Kuramochi cells (Sekisui XenoTech JCRB0098) were seeded at 2,000 cells/well in columns 2-12 of a 96 well plate (Corning, CLS3596) in 150 uL media and allowed to adhere overnight at 37 degree with 5% CO2. In order to assess specificity of the compounds, Kuramochi RB^KO cells were also plated and treated, as RB^KO cells were not expected to show a proliferative response to CCNE/CDK specific inhibitors.
On day 0, the source plate was prepared by adding 10 mM compounds and performing 3-fold serial dilutions for a 4-point dose response of each compound. Using a multichannel pipette, 2 μL of the contents of the source plate were stamped into an intermediate plate with 500 μL of RPMI 1640 Media, GlutaMAX Supplement (Life Technologies. 61870127) in each well of a Nunc 96 DeepWell™ plate, non-treated 96 DeepWell plate, 2 mL/well, sterile, natural. 60/cs (Sigma Z717274) and mixed thoroughly. 50 uL from row A of this intermediate plate were added to rows A-H of one plate of previously seeded Kuramochi cells, and each subsequent row of the intermediate plate was added to a full plate of cells.
On day 4, the plates were developed using the BrdU ELISA Cell Proliferation Assay according to manufacturer's instructions (Roche, 11647229001). Briefly, BrdU was diluted 1:100 in Gibco®. Opti-MEM® and 20 μL/well was added, shaken for 10 minutes at 350 rpm, and then returned to the incubator for 1 hour. Following incubation, the medium was discarded, and the cells were fixed by adding 200 μL of Fix/Denature solution. The anti-BrdU peroxidase antibody was diluted 1:1000 in OptiMEM, added at 100 μL/well, and incubated while shaking (350 rpm) for one hour. Three washes with PBS were performed to remove any unbound antibody, followed by the addition of 100 μL of substrate solution to each well. […] was then added to halt the reaction, and plates were read out using an Envision spectrophotometer (Perkin Elmer) set to read 450 nm absorbance. Background absorbance values from empty wells were subtracted from all samples and then normalized to DMSO treated wells.

[1] = system: Kuramochi cells labeled with mApple-H2B; experiment: IncuCyte cell proliferation assay; assay type: cell-based; conditions: Kuramochi RB-WT, cell count 0 to 72 hours; method calls it GI50
Experimental: IncuCyte® assay was used to measure the effect of disclosed compounds on cell proliferation. Fluorescent microscopy images of cells were taken immediately after compound treatment and 72 hours later. Image analysis software was used to obtain cell counts as a function of compound concentration. Kuramochi cells labeled with mApple-H2B were seeded on 384-well assay-ready plates. Plates were placed in an IncuCyte® (Sartorius) and scanned at 0 and 72 hours. IncuCyte® software was used to count the number of fluorescent nuclei in each well. The fold change in cell count from 0 to 72 hours in wells treated with increasing compounds concentrations (10 pts, 1/2 log dilution, 20 μM top concentration) was normalized to DMSO control wells. The normalized cell counts were fit with dose response curves and a GI50 was calculated.

## CNC(=O)[C@@H](NC(=O)[C@@H]1CN(C(=O)c2cnn(Cc3ccccc3)c2)CC12CN(c1nnn[nH]1)C2)[C@@H](C)OCC1CCCCC1 [Compound I-1, (S)-6-(1-Benzyl-1H-pyrazole-4-carbonyl)-N-((2S,3R)-3-(cyclohexylmethoxy)-1-(methylamino)-1-oxobutan-2-yl)-2-(1H-tetrazol-5-yl)-2,6-diazaspiro[3.4]octane-8-carboxamide]
CDK2/Cyclin E1
  pIC50: < 5.00
Kuramochi cells
  pIC50: < 5.00
[1]
  pIC50: < 4.70

## CNC(=O)[C@@H](NC(=O)[C@@H]1CN(C(=O)c2cnn(Cc3ccccc3)c2)CC12CN(c1ncco1)C2)[C@@H](C)OCC1CCCCC1 [Compound I-2, (S)-6-(1-benzyl-1H-pyrazole-4-carbonyl)-N-((2S,3R)-3-(cyclohexylmethoxy)-1-(methylamino)-1-oxobutan-2-yl)-2-(oxazol-2-yl)-2,6-diazaspiro[3.4]octane-8-carboxamide]
CDK2/Cyclin E1
  pIC50: 6.00 to 7.00
Kuramochi cells
  pIC50: < 5.00
[1]
  pIC50: < 4.70

## C[C@@H](OCC12CCC(CC1)OC2)[C@H](NC(=O)[C@@H]1CN(C(=O)c2cncs2)CC12CN(c1ncco1)C2)C(C)(C)O [Compound I-3, (S)-N-((3S,4R)-4-(2-oxabicyclo[2.2.2]octan-4-ylmethoxy)-2-hydroxy-2-methylpentan-3-yl)-2-(oxazol-2-yl)-6-(thiazole-5-carbonyl)-2,6-diazaspiro[3.4]octane-8-carboxamide]
CDK2/Cyclin E1
  pIC50: < 5.00
Kuramochi cells
  pIC50: < 5.00
[1]
  pIC50: < 4.70

## C[C@@H](OCC1CCCCC1)[C@H](NC(=O)[C@@H]1CN(c2cccc3cn[nH]c23)CC12CN(C(=O)[C@H]1CC1(C)C)C2)C(=O)N1CCCCC1 [Compound I-11, (S)-N-((2S,3R)-3-(cyclohexylmethoxy)-1-oxo-1-(piperidin-1-yl)butan-2-yl)-2-((S)-2,2-dimethylcyclopropanecarbonyl)-6-(1H-indazol-7-yl)-2,6-diazaspiro[3.4]octane-8-carboxamide]
Kuramochi cells
  pIC50: 5.30 to 6.30
[1]
  pIC50: 5.30 to 6.30

## C[C@@H](OCC1CCCCC1)[C@H](NC(=O)[C@@H]1CN(c2nccc3cn[nH]c23)CC12CN(C(=O)[C@H]1CC1(C)C)C2)C(=O)N1CCCCC1 [Compound I-12, (S)-N-((2S,3R)-3-(cyclohexylmethoxy)-1-oxo-1-(piperidin-1-yl)butan-2-yl)-2-((S)-2,2-dimethylcyclopropane-1-carbonyl)-6-(1H-pyrazolo[3,4-c]pyridin-7-yl)-2,6-diazaspiro[3.4]octane-8-carboxamide 2,2,2-trifluoroacetate]
CDK2/Cyclin E1
  pIC50: < 5.00
Kuramochi cells
  pIC50: < 5.00

## C[C@@H](OCC12CCC(CC1)OC2)C(NC(=O)[C@@H]1CN(c2ncnc3ncsc23)CC12CN(C(=O)[C@H]1CC1(C)C)C2)C(=O)N1CCC(C(F)(F)F)CC1 (stereo partly drawn) [Compound I-30, (S)-N-((2S,3R)-3-((2-oxabicyclo[2.2.2]octan-4-yl)methoxy)-1-oxo-1-(4-(trifluoromethyl)piperidin-1-yl)butan-2-yl)-2-((S)-2,2-dimethylcyclopropane-1-carbonyl)-6-(thiazolo[4,5-d]pyrimidin-7-yl)-2,6-diazaspiro[3.4]octane-8-carboxamide]
CDK2/Cyclin E1
  pIC50: 7.00 to 8.00
[1]
  pIC50: 5.30 to 6.30

## CNC(=O)C(NC(=O)[C@@H]1CN(C(=O)c2cncs2)CC12CN(c1nc(C(F)(F)F)co1)C2)[C@@H](C)OCC12CCC(CC1)OC2 (stereo partly drawn) [Compound I-32, (S)-N-((2S,3R)-3-((2-oxabicyclo[2.2.2]octan-4-yl)methoxy)-1-(methylamino)-1-oxobutan-2-yl)-6-(thiazole-5-carbonyl)-2-(4-(trifluoromethyl)oxazol-2-yl)-2,6-diazaspiro[3.4]octane-8-carboxamide]
CDK2/Cyclin E1
  pIC50: < 5.00
[1]
  pIC50: < 4.70

## C[C@@H](OCC12CCC(CC1)OC2)[C@H](NC(=O)[C@@H]1CN(c2cc(F)cc3ncsc23)CC12CN(C(=O)[C@H]1CC1(C)C)C2)C(=O)N1CCC(c2ccncc2)CC1 [Compound I-33, N-((2S,3R)-3-(2-oxabicyclo[2.2.2]octan-4-ylmethoxy)-1-oxo-1-(4-(pyridin-4-yl)piperidin-1-yl)butan-2-yl)-2-((S)-2,2-dimethylcyclopropanecarbonyl)-6-(5-fluorobenzo[d]thiazol-7-yl)-2,6-diazaspiro[3.4]octane-8-carboxamide]
CDK2/Cyclin E1
  pIC50: ≥ 8.00
[1]
  pIC50: 5.30 to 6.30

## C[C@@H](OCC1(CO)CC=CCC1)C(NC(=O)[C@@H]1CN(c2ncnc3ncsc23)CC12CN(C(=O)[C@H]1CC1(C)C)C2)C(=O)N1CCC(OC(F)(F)F)CC1 (stereo partly drawn) [Compound I-35, (8S)-2-((S)-2,2-dimethylcyclopropane-1-carbonyl)-N-((2S,3R)-3-((1-(hydroxymethyl)cyclohex-3-en-1-yl)methoxy)-1-oxo-1-(4-(trifluoromethoxy)piperidin-1-yl)butan-2-yl)-6-(thiazolo[4,5-d]pyrimidin-7-yl)-2,6-diazaspiro[3.4]octane-8-carboxamide]
CDK2/Cyclin E1
  pIC50: 7.00 to 8.00
[1]
  pIC50: < 4.70

## C[C@@H](OCC1(CO)CC=CCC1)[C@H](NC(=O)[C@@H]1CN(c2ncnc3ncsc23)CC12CN(C(=O)[C@H]1CC1(C)C)C2)C(=O)N1CCC(C(F)(F)F)CC1 (stereo partly drawn) [Compound I-36, (8S)-2-((S)-2,2-dimethylcyclopropane-1-carbonyl)-N-((2S,3R)-3-((1-(hydroxymethyl)cyclohex-3-en-1-yl)methoxy)-1-oxo-1-(4-(trifluoromethyl)piperidin-1-yl)butan-2-yl)-6-(thiazolo[4,5-d]pyrimidin-7-yl)-2,6-diazaspiro[3.4]octane-8-carboxamide]
CDK2/Cyclin E1
  pIC50: 7.00 to 8.00
[1]
  pIC50: < 4.70

## C[C@@H](OCC1(CO)CC=CCC1)[C@H](NC(=O)[C@@H]1CN(c2ncnc3ncsc23)CC12CN(C(=O)[C@H]1CC1(C)C)C2)C(=O)N1CC2(CCOCC2)C1 (stereo partly drawn) [Compound I-37, (8S)-2-((S)-2,2-dimethylcyclopropane-1-carbonyl)-N-((2S,3R)-3-((1-(hydroxymethyl)cyclohex-3-en-1-yl)methoxy)-1-oxo-1-(7-oxa-2-azaspiro[3.5]nonan-2-yl)butan-2-yl)-6-(thiazolo[4,5-d]pyrimidin-7-yl)-2,6-diazaspiro[3.4]octane-8-carboxamide]
CDK2/Cyclin E1
  pIC50: 6.00 to 7.00
[1]
  pIC50: < 4.70

## COC[C@H]1CCCN(C(=O)[C@@H](NC(=O)[C@H]2CN(c3nc(C(F)(F)F)cs3)CC23CN(C(=O)[C@H]2CC2(C)C)C3)[C@@H](C)OCC23CCC(CC2)OC3)C1 [I-17 2nd, N-((2S,3R)-3-(2-oxabicyclo[2.2.2]octan-4-ylmethoxy)-1-((S)-3-(methoxymethyl)piperidin-1-yl)-1-oxobutan-2-yl)-2-((S)-2,2-dimethylcyclopropanecarbonyl)-6-(4-(trifluoromethyl)thiazol-2-yl)-2,6-diazaspiro[3.4]octane-8-carboxamide]
CDK2/Cyclin E1
  pIC50: < 5.00
[1]
  pIC50: < 4.70
